The record followed here is BindingDB's records for patent US9428501 (Astellas Pharma Inc, 2016).

The assay has as its target 5'-AMP-activated protein kinase catalytic subunit alpha-2 (Homo sapiens, UniProt P54646). Nature of the assay: Activation Assay. The following applies: 37 °C. As to the method: After the incubation, 20 μl of a 40% glyoxal solution (Nacalai Tesque) was added to each well, and then cells were fixed by leaving to stand at room temperature for 30 minutes. Thereafter, the supernatant was removed by centrifuging the plate, and then 0.1% Triton X-100-containing Phosphate-Buffered Saline (PBS) was added to each well by 20 followed by incubating at room temperature for 10 minutes. […] The blocking solution was removed by centrifuging, with the exception of the blocking solution by centrifugation, and then a blocking solution which was diluted such that the amount of phosphorylation antibody (manufactured by Cell Signaling Technology, Inc) of ACC Ser79 as a primary antibody is 1/500 was added to each well by 10 followed by leaving to stand at 4° C. overnight. The following day, the reaction liquid was removed by centrifuging the plate, and then 0.05% Tween-20-containing Tris-Buffered Saline (TBS) (manufacture by Thermo Scientific Inc.; used in 1× in which 20×TBS Tween-20 was diluted with ion-exchange water) was added to each well by 25 followed by washing each well by centrifugal removal. The washing of each well was repeated for a total of 3 times. […]

For orientation: EC50 means the midpoint of the concentration-response curve. Read a low EC50 as a more potent agent.

Chain of 5'-AMP-activated protein kinase catalytic subunit alpha-2 (P54646 whole entry): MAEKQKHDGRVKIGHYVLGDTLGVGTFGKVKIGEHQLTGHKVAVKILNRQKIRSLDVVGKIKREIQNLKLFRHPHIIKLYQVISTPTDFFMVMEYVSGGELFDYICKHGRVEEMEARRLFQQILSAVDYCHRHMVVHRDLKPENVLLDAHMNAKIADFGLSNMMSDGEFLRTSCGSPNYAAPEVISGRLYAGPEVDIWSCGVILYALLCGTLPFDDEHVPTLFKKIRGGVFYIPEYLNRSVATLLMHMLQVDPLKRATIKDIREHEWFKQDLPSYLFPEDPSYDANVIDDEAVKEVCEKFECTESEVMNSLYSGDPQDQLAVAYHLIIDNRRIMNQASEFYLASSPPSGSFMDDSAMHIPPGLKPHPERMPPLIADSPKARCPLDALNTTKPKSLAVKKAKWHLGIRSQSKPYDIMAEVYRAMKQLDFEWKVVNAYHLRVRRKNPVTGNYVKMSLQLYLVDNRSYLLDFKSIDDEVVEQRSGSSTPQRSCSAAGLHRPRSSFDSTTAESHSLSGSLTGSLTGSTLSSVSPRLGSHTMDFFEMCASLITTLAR

`CCOc1cnc(CN2CCC(c3ccc4cc(C(=O)N5CCN(Cc6ccc(C#N)cc6)CC5)n(C)c4c3)CC2)cn1` [US9428501, 69] registered an EC50 of 1.8 nM.
